Laboratory results from ChEMBL document CHEMBL1130913, “Synthesis and antibacterial in vitro activity of novel analogues of nematophin” (1998).
Values after ≈ are worked out from the molar mass of the structure shown.

Experiments:
[1] = tested on: Staphylococcus hyicus; experiment: In vitro inhibitory activity in iso sensitest agar against Staphylococcus hyicus strain ATCC 9622 in addition with 5%serum; type: functional
[2] = tested on: Staphylococcus intermedius; experiment: In vitro inhibitory activity in iso sensitest agar against Staphylococcus intermedius strain ATCC 29663; type: functional
[3] = tested on: Staphylococcus intermedius; experiment: In vitro inhibitory activity in iso sensitest agar against Staphylococcus intermedius strain ATCC 9503; type: functional
[4] = tested on: Staphylococcus aureus; experiment: In vitro inhibitory activity in iso sensitest agar against Staphylococcus aureus strain ATCC 6538 in addition with 5%serum; type: functional
[5] = tested on: Staphylococcus hyicus; experiment: In vitro inhibitory activity in iso sensitest agar against Staphylococcus hyicus strain ATCC 9621 in addition with 5%serum; type: functional
[6] = tested on: Staphylococcus intermedius; experiment: In vitro inhibitory activity in iso sensitest agar against Staphylococcus intermedius strain ATCC 9503 in addition with 5%serum; type: functional
[7] = tested on: Staphylococcus aureus; experiment: In vitro inhibitory activity in iso sensitest agar against Staphylococcus aureus strain ATCC 29213 in addition with 5%serum; type: functional
[8] = tested on: Staphylococcus hyicus; experiment: In vitro inhibitory activity in iso sensitest agar against Staphylococcus hyicus strain ATCC 9622; type: functional
[9] = tested on: Staphylococcus hyicus; experiment: In vitro inhibitory activity in iso sensitest agar against Staphylococcus hyicus strain ATCC 9621; type: functional
[10] = tested on: Staphylococcus aureus; experiment: In vitro inhibitory activity in iso sensitest agar against Staphylococcus aureus strain ATCC 25923; type: functional
[11] = tested on: Staphylococcus aureus; experiment: In vitro inhibitory activity in iso sensitest agar against Staphylococcus aureus strain ATCC 25923 in addition with 5%serum; type: functional
[12] = tested on: Staphylococcus intermedius; experiment: In vitro inhibitory activity in iso sensitest agar against Staphylococcus intermedius strain ATCC 29663 in addition with 5%serum; type: functional
[13] = tested on: Staphylococcus aureus; experiment: In vitro inhibitory activity in iso sensitest agar against Staphylococcus aureus strain ATCC 29213; type: functional
[14] = tested on: Staphylococcus aureus; experiment: In vitro inhibitory activity in iso sensitest agar against Staphylococcus aureus strain ATCC 6538; type: functional
[15] = tested on: Staphylococcus hyicus; experiment: In vitro inhibitory activity in iso sensitest agar against Staphylococcus hyicus strain ATCC 9621 in addition with 5%blood; type: functional
[16] = tested on: Staphylococcus hyicus; experiment: In vitro inhibitory activity in iso sensitest agar against Staphylococcus hyicus strain ATCC 9622 in addition with 0.5%serum; type: functional
[17] = tested on: Staphylococcus intermedius; experiment: In vitro inhibitory activity in iso sensitest agar against Staphylococcus intermedius strain ATCC 9503 in addition with 0.5%blood; type: functional
[18] = tested on: Staphylococcus aureus; experiment: In vitro inhibitory activity in iso sensitest agar against Staphylococcus aureus strain ATCC 6538 in addition with 0.5%blood; type: functional
[19] = tested on: Staphylococcus hyicus; experiment: In vitro inhibitory activity in iso sensitest agar against Staphylococcus hyicus strain ATCC 9622 in addition with 0.5%blood; type: functional
[20] = tested on: Staphylococcus hyicus; experiment: In vitro inhibitory activity in iso sensitest agar against Staphylococcus hyicus strain ATCC 9621 in addition with 0.5%serum; type: functional
[21] = tested on: Staphylococcus intermedius; experiment: In vitro inhibitory activity in iso sensitest agar against Staphylococcus intermedius strain ATCC 9503 in addition with 5%blood; type: functional
[22] = tested on: Staphylococcus aureus; experiment: In vitro inhibitory activity in iso sensitest agar against Staphylococcus aureus strain ATCC 6538 in addition with 5%blood; type: functional
[23] = tested on: Staphylococcus intermedius; experiment: In vitro inhibitory activity in iso sensitest agar against Staphylococcus intermedius strain ATCC 9503 in addition with 0.5%serum; type: functional
[24] = tested on: Staphylococcus hyicus; experiment: In vitro inhibitory activity in iso sensitest agar against Staphylococcus hyicus strain ATCC 9621 in addition with 0.5%blood; type: functional
[25] = tested on: Staphylococcus aureus; experiment: In vitro inhibitory activity in iso sensitest agar against Staphylococcus aureus strain ATCC 6538 in addition with 0.5%serum; type: functional
[26] = tested on: Staphylococcus hyicus; experiment: In vitro inhibitory activity in iso sensitest agar against Staphylococcus hyicus strain ATCC 9622 in addition with 5%blood; type: functional
[27] = tested on: Staphylococcus hyicus; experiment: In vitrIn vitro inhibitory activity in iso sensitest agar against Staphylococcus hyicus strain ATCC 9621; type: functional
[28] = tested on: Staphylococcus hyicus; experiment: In vitro minimum inhibitory concentration in iso sensitest agar against Staphylococcus hyicus strain ATCC 9622; type: functional
[29] = tested on: Staphylococcus aureus; experiment: In vitro inhibitory activity in iso sensitest agar against Staphylococcus aureus strain ATCC 6538 in addition with 0.5%serum
[30] = tested on: Staphylococcus aureus; experiment: In vitro inhibitory activity in iso sensitest agar against Staphylococcus aureus strain ATCC 6538 in addition with 5%serum
[31] = tested on: Staphylococcus aureus; experiment: In vitro inhibitory activity in iso sensitest agar against Staphylococcus aureus strain ATCC 6538 in addition with 5%blood

Row | MIC [1] [µg/mL] | MIC [2] [µg/mL] | MIC [3] [µg/mL] | MIC [4] [µg/mL] | MIC [5] [µg/mL] | MIC [6] [µg/mL] | MIC [7] [µg/mL] | MIC [8] [µg/mL] | MIC [9] [µg/mL] | MIC [10] [µg/mL] | MIC [11] [µg/mL] | MIC [12] [µg/mL] | MIC [13] [µg/mL] | MIC [14] [µg/mL] | Structure (SMILES) | also measured
1 | > 64 | > 64 | 2 (≈ 5.52 µM) | > 64 | > 64 | > 64 | > 64 | 2 (≈ 5.52 µM) | 1 (≈ 2.76 µM) | 2 (≈ 5.52 µM) | > 64 | > 64 | 2 (≈ 5.52 µM) | 1 (≈ 2.76 µM) | CC(C)CC(=O)C(=O)NCCc1cn(Cc2ccccc2)c2ccccc12 | –
2 | > 64 | 2 (≈ 6.98 µM) | 0.5 (≈ 1.75 µM) | > 64 | > 64 | 32 (≈ 112 µM) | 16 (≈ 55.9 µM) | 0.03 (≈ 0.105 µM) | 0.03 (≈ 0.105 µM) | 0.03 (≈ 0.105 µM) | 16 (≈ 55.9 µM) | 16 (≈ 55.9 µM) | 0.03 (≈ 0.105 µM) | 0.03 (≈ 0.105 µM) | CC(C)CC(=O)C(=O)NCCc1cn(C)c2ccccc12 | –
3 | > 64 | 8 (≈ 29.4 µM) | 2 (≈ 7.34 µM) | > 64 | > 64 | 16 (≈ 58.7 µM) | 4 (≈ 14.7 µM) | 0.5 (≈ 1.84 µM) | 1 (≈ 3.67 µM) | 0.125 (≈ 0.459 µM) | 4 (≈ 14.7 µM) | 16 (≈ 58.7 µM) | 0.125 (≈ 0.459 µM) | 0.25 (≈ 0.918 µM) | CCC(C)C(=O)C(=O)NCCc1c[nH]c2ccccc12 (configuration not stated) | MIC [15]: > 128 µg/mL; MIC [16]: 1 µg/mL (≈ 3.67 µM); MIC [17]: 1 µg/mL (≈ 3.67 µM); MIC [18]: > 128 µg/mL; MIC [19]: 0.125 µg/mL (≈ 0.459 µM); MIC [20]: > 128 µg/mL; MIC [21]: > 128 µg/mL; MIC [22]: > 128 µg/mL; MIC [23]: 8 µg/mL (≈ 29.4 µM); MIC [24]: 0.25 µg/mL (≈ 0.918 µM); MIC [25]: > 128 µg/mL; MIC [26]: > 128 µg/mL
4 | > 32 | 4 (≈ 12.7 µM) | 2 (≈ 6.36 µM) | > 32 | > 32 | > 32 | 8 (≈ 25.4 µM) | 0.5 (≈ 1.59 µM) | 1 (≈ 3.18 µM) | 0.03 (≈ 0.0954 µM) | 16 (≈ 50.9 µM) | > 32 | 0.03 (≈ 0.0954 µM) | 0.03 (≈ 0.0954 µM) | CCC(C)C(=O)C(=O)NCCc1cn(C(C)C)c2ccccc12 (configuration not stated) | –
5 | > 64 | 8 (≈ 22.1 µM) | 2 (≈ 5.52 µM) | > 64 | > 64 | > 64 | 16 (≈ 44.1 µM) | 1 (≈ 2.76 µM) | 1 (≈ 2.76 µM) | 0.125 (≈ 0.345 µM) | 16 (≈ 44.1 µM) | > 64 | 0.125 (≈ 0.345 µM) | 0.125 (≈ 0.345 µM) | CCC(C)C(=O)C(=O)NCCc1cn(Cc2ccccc2)c2ccccc12 (configuration not stated) | –
6 | – | – | 0.5 (≈ 1.75 µM) | – | – | – | – | 0.5 (≈ 1.75 µM) | 1 (≈ 3.49 µM) | – | – | – | – | 1 (≈ 3.49 µM) | CCC(C)C(=O)C(=O)NC(C)Cc1c[nH]c2ccccc12 (configuration not stated) | –
7 | > 64 | 1 (≈ 2.87 µM) | 0.125 (≈ 0.359 µM) | > 64 | > 64 | > 64 | > 64 | – | – | 0.06 (≈ 0.172 µM) | > 64 | > 64 | 0.06 (≈ 0.172 µM) | 0.03 (≈ 0.0861 µM) | CC(C)CC(=O)C(=O)NCCc1cn(-c2ccccc2)c2ccccc12 | MIC [27]: 0.06 µg/mL (≈ 0.172 µM); MIC [28]: 0.015 µg/mL (≈ 0.043 µM)
8 | – | 2 (≈ 7.34 µM) | 1 (≈ 3.67 µM) | – | – | – | – | 0.03 (≈ 0.11 µM) | 0.25 (≈ 0.918 µM) | 0.25 (≈ 0.918 µM) | – | – | 0.25 (≈ 0.918 µM) | 0.125 (≈ 0.459 µM) | CC(C)CC(=O)C(=O)NCCc1c[nH]c2ccccc12 | –
9 | > 64 | 2 (≈ 6.36 µM) | 1 (≈ 3.18 µM) | > 64 | > 64 | 64 (≈ 204 µM) | 32 (≈ 102 µM) | 0.25 (≈ 0.795 µM) | 0.06 (≈ 0.191 µM) | 0.06 (≈ 0.191 µM) | 32 (≈ 102 µM) | 32 (≈ 102 µM) | 0.25 (≈ 0.795 µM) | 0.125 (≈ 0.398 µM) | CC(C)CC(=O)C(=O)NCCc1cn(C(C)C)c2ccccc12 | –
10 | > 32 | 2 (≈ 6.98 µM) | 0.5 (≈ 1.75 µM) | > 32 | > 32 | – | 16 (≈ 55.9 µM) | 0.06 (≈ 0.21 µM) | 0.06 (≈ 0.21 µM) | 0.015 (≈ 0.0524 µM) | 16 (≈ 55.9 µM) | 32 (≈ 112 µM) | 0.015 (≈ 0.0524 µM) | 0.015 (≈ 0.0524 µM) | CCC(C)C(=O)C(=O)NCCc1cn(C)c2ccccc12 (configuration not stated) | MIC [15]: > 128 µg/mL; MIC [16]: 0.125 µg/mL (≈ 0.436 µM); MIC [29]: 2 µg/mL (≈ 6.98 µM); MIC [17]: 0.06 µg/mL (≈ 0.21 µM); MIC [18]: 0.06 µg/mL (≈ 0.21 µM); MIC [19]: 0.03 µg/mL (≈ 0.105 µM); MIC [20]: 0.25 µg/mL (≈ 0.873 µM); MIC [22]: > 128 µg/mL; MIC [30]: > 32 µg/mL; MIC [31]: > 128 µg/mL; MIC [24]: 0.03 µg/mL (≈ 0.105 µM); MIC [25]: 0.25 µg/mL (≈ 0.873 µM); MIC [26]: > 128 µg/mL
